Where “and” joins values, the source holds several entries; their conditions need not be identical. Equal entries are not always repeated.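 Assay format: 96-well plates, 48-hour exposure. Abbreviation: GI50, concentration required for 50% inhibition of growth. TGI is the concentration that stops growth completely.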
Experiments:
Experiment in all cases: growth of human tumour cells (NCI), 48 h
[1] = tested on: K-562 leukemia
[2] = tested on: COLO 205 colon
[3] = tested on: MDA-MB-435
[4] = tested on: M14 melanoma
[5] = tested on: PC-3 prostate
[6] = tested on: NCI-H23 lung
[7] = tested on: HCT-15 colon
[8] = tested on: HS 578T breast
[9] = tested on: SK-OV-3 ovarian
[10] = tested on: CCRF-CEM leukemia

Row | SMILES | GI50 [1] | TGI [1] | GI50 [2] | TGI [2] | GI50 [3] | TGI [3] | GI50 [4] | TGI [4] | GI50 [5] | TGI [5] | GI50 [6] | TGI [6] | GI50 [7] | TGI [7] | GI50 [8] | TGI [8] | GI50 [9] | TGI [9] | GI50 [10] | TGI [10]
1 | CN(C)c1ccc(/C=C/c2cc[n+](C)c(/C=C/c3ccc(N(C)C)cc3)c2)cc1 | 0.163 µM | 3.25 µM | 0.176 µM | 0.356 µM | 0.346 µM | 1.32 µM | 0.376 µM | 1.65 µM | 0.248 µM | 1.26 µM | 0.194 µM | 1.21 µM | 0.904 µM | 9.74 µM | 0.491 µM | 16.6 µM | 0.27 µM | 1.39 µM | 0.248 µM | 3.78 µM
2 | N#C/C(=C\c1ccc(Br)cc1)n1nnc2ccc(F)cc21 | 0.332 µM | > 100 µM | 1.54 µM | 4 µM | 0.19 µM | 0.403 µM | 0.385 µM | 1.69 µM | 0.953 µM | 2.89 µM | 1.42 µM | 3.34 µM | 0.353 µM | 1.78 µM | 2.71 µM | 20.4 µM | 4.85 µM | > 100 µM | 0.395 µM | > 100 µM
3 | CN(C)CCNC(=O)c1ccc(NC(=O)c2nc([N+](=O)[O-])cn2C)cc1 | – | > 100 µM | – | > 100 µM | – | > 100 µM | – | > 100 µM | – | > 100 µM | – | > 100 µM | – | > 100 µM | – | > 100 µM | – | > 100 µM | – | > 100 µM
4 | C#CCOc1cccc(Nc2ncnc3cc(NC(=O)CCl)ccc23)c1 | 0.628 µM | 4.69 µM | 5.04 µM | 19.8 µM | 3.1 µM | 16.4 µM | 5.11 µM | 20.4 µM | 2.57 µM | 12 µM | 3.4 µM | 16.7 µM | 1.51 µM | 6.8 µM | 3.61 µM | 26.9 µM | 4.36 µM | 17.2 µM | 1.55 µM | 8.85 µM
5 | CC(C)=CC1=C2C3=C(C(=O)C4(O)Oc5c(C)c6c7c(c5OC24C)[C@@H](C)CC[C@@H]7[C@@H](C)C[C@H]6C=C(C)C)C(C)CCC3C(C)C1 (stereo not given in full) | > 100 µM | > 100 µM | > 100 µM | > 100 µM | > 100 µM | > 100 µM | > 100 µM | > 100 µM | > 100 µM | > 100 µM | > 100 µM | > 100 µM | > 100 µM | > 100 µM | > 100 µM | > 100 µM | > 100 µM | > 100 µM | > 100 µM | > 100 µM
6 | Cc1cc(C)c(-n2c(-c3ccc(Br)cc3)cs/c2=N\N=C2C=C(C(C)(C)C)C(=O)C(C(C)(C)C)=C2)c(C)c1 | – | > 100 µM | – | > 100 µM | – | > 100 µM | – | > 100 µM | – | > 100 µM | – | > 100 µM | – | > 100 µM | – | 62.5 µM | – | > 100 µM | – | > 100 µM
7 | O=c1c(-c2ccccc2)coc2cc(OC/C(=N/O)c3ccccc3)ccc12 | 11.3 µM | > 100 µM | 26.5 µM | 72.6 µM | 20.5 µM | > 100 µM | 14.4 µM | 39.7 µM | 17.4 µM | 46 µM | > 100 µM | > 100 µM | 16.2 µM | 39.6 µM | 34.4 µM | 86 µM | 25.9 µM | 88.5 µM | 4.22 µM | > 100 µM
8 | CCN(CC)c1ccc(C(=O)c2ccc(N(CC)CC)cc2)cc1 | 0.15 µM | 10.2 µM | 0.515 µM | 3.44 µM | 0.0694 µM | 0.43 µM | 0.614 µM | > 30.1 µM | 0.452 µM | > 100 µM | 0.74 µM | > 100 µM | 0.412 µM | 36.1 µM | 0.237 µM | 1 µM | 0.676 µM | 56.8 µM | 0.383 µM | > 100 µM
9 | COc1cc(Nc2ncc(F)c(Nc3ccc4c(n3)N(COP(=O)(O)O)C(=O)C(C)(C)O4)n2)cc(OC)c1OC | 5.3 µM and 3.41 µM | > 100 µM | 2.03 µM and 1.31 µM | 5.37 µM and 3.59 µM | 2.78 µM and 2.67 µM | 22 µM and > 10 µM | 2.71 µM and 2.88 µM | 29.4 µM and > 10 µM | 2.1 µM and 4.17 µM | 22.6 µM and > 10 µM | 2.51 µM and 2.57 µM | 22.7 µM and > 10 µM | 2.45 µM and 3.22 µM | > 100 µM | 0.538 µM and 0.173 µM | 4.27 µM and 0.59 µM | 0.972 µM and 0.707 µM | 3.46 µM and 2.98 µM | 3.09 µM and 3.84 µM | 44.8 µM and > 10 µM
10 | C=C1CC2(OC1=O)C(=O)Nc1ccccc12 (stereo not given) | 1.88 µM | 10 µM | 0.885 µM | 2.41 µM | 3.57 µM | 14.9 µM | 2.71 µM | 10 µM | 5.26 µM | 18.8 µM | 6.34 µM | 23.1 µM | 1.51 µM | 3.69 µM | 11 µM | 56.6 µM | 26.7 µM | > 100 µM | 2.11 µM | 7.15 µM
11 | NCCCNCCCCNC(=O)C(O)NC(=O)CCCCCCN=C(N)N (stereo not given) | 805 µM | 750 µM and > 3610 µM | 1580 µM | 750 µM and > 5000 µM | 1960 µM | > 3760 µM | 2450 µM | > 3810 µM | 1590 µM | > 5000 µM | 2330 µM | 750 µM and > 5000 µM | > 2640 µM | 750 µM and > 5000 µM | 2070 µM | 750 µM and 3990 µM | > 5000 µM | > 5000 µM | 1320 µM | 750 µM and > 3570 µM
12 | O=C1C(Cl)=C(NCc2ccco2)C(=O)c2ccccc21 | 4.55 µM | > 100 µM | 9.11 µM | 26.4 µM | 2.06 µM | 3.89 µM | 4.31 µM | 12.1 µM | 33.6 µM | > 100 µM | 2.5 µM | 10.4 µM | 4.77 µM | 56.5 µM | 3.2 µM | 10.1 µM | 40.3 µM | > 100 µM | 9.88 µM | > 100 µM
